Laboratory results as given in patent US10047036B2, “Method for the synthesis of hydroxy-triglycerides and uses thereof for the prevention and treatment of diseases” (UNIVERSITAT DE LES ILLES BALEARS, priority 2014, dated 2018).

Assays:
[1] = system: MRC5 (non-tumour) human fibroblasts; assay: growth inhibition of normal non-tumour cells, 72 h incubation; assay type: cell-based; details: 72 hours of incubation
Description: On the one hand, human cells of different types of cancer were used. The cells were incubated at 37° C. and 5% of CO2 in air, in culture medium RPMI1640 or DMEM with bovine foetal serum (10%) and other supplements and in the presence or absence of the triglycerides of the present invention at different concentrations during 72 hours. It was possible to observe that the hydroxy-triglycerides of the invention have a high efficacy against the growth of human tumour cells, but not against the growth of normal non-tumour cells (human fibroblasts, MRC5).

[2] = system: systolic blood pressure; assay: systolic blood pressure in spontaneously hypertensive rats; assay type: in vivo; details: SHR rats; for Δ SP, change in systolic blood pressure: 14 days, 600 mg/kg every 12 hours, basal 216 mmHg; for drops in systolic blood pressure: 14-day treatments with 600 mg/kg
Description: Metabolic and cardiovascular pathologies are closely related. The overfeeding which characterises our society not only gives rise to problems of obesity and excess weight. It is also linked to the appearance of diabetes, dyslipidaemia, hypertension, strokes, arteriosclerosis, ictus, etc. All of these pathologies increase the risk of premature death and can even cause death. In this sense, certain natural oils show a certain efficacy against this type of pathologies, but their power is limited. In contrast, the molecules of the invention have an important effect against the development of this type of pathologies. To be able to study the effects of the compounds of the invention for the prevention and treatment of metabolic and cardiovascular pathologies, hypertensive rats were used (SHR strain, spontaneously hypertensive rats). These rats present obesity, high blood pressure, dyslipidaemia (hypercholesterolemia and hypertriglyceridemia), diabetes, metabolic syndrome and other related health problems. Hypertensive rats of the SHR strain (spontaneously hypertensive rats) with an approximate weight of 300 grams were treated with TGM1 during 9 days (400 mg/kg, every 12 h, p.o.). Systolic pressure was measured before starting the treatment (basal) and 9 days later. In these animals with a metabolic/cardiovascular pathology, this treatment with TGM1 produced drops in blood pressure of approximately 25 mmHg, while the 14-day treatments with 600 mg/kg of TGM1 induced even greater drops in systolic blood pressure of up to 37 mmHg for TGM1 and up to 52 mmHg for TGM6 (FIG. 4 and Table 3). […] [table]

[3] = system: Drosophila melanogaster flies with human Alzheimer's genes (F1); assay: survival of Drosophila melanogaster with Alzheimer's disease; assay type: in vivo; details: 100 μM in the food
Description: To investigate the effect of TGMs on the cognitive parameters and aging, another model of Alzheimer's disease in Drosophila melanogaster flies with genetic alterations corresponding to human Alzheimer's was used. The flies used were the first generation (F1) from the crossing of UAS-Aβ human-Tau 2N4R (stock 33771) flies with elav-GAL4^c155 (stock 8760) flies. This model which over-expresses the two proteins typical of Alzheimer's disease is complementary to the model described above and very convenient, as these animals have a life of approximately 1 month and it is possible to add the compounds to the food of the larvae to see the preventative effect thereof throughout their entire life. Also, it allows the effect on aging to be seen and on the life expectancy of these animals (survival over time).
In this sense, the flies with human Alzheimer's (F1) present a greater cognitive decline in comparison to the “Oregon” fly strain, which are the healthy controls. To evaluate the effect of the hydroxy-triglycerides of the invention, each one of the TGMs (100 μM) was added to the food consumed by these animals. It was possible to observe a positive effect of same in the geotaxis test of climbing (FIG. 7B and Table 11). In this test, the behavioural motor activity was investigated in 25 flies treated with vehicle or one of the TGMs. In this study, the flies were introduced in a glass cylinder with an opening closed with a sponge so air could enter. The flies were taken to the ground (bottom) of the pipe by giving it a sharp blow on a table and their behaviour was timed during 20 seconds. Once this time was over, the number of flies which had passed (crossed) a mark at 15 cm from the bottom was counted (geotaxis test). Usually, more than 90% of healthy young flies passed the line within 20 seconds. However, with aging or with Alzheimer's disease, the behavioural motor activity (percentage of flies which crossed the line) declined, compared to normal flies. In this context, the treatments with the hydroxy-triglycerides of the present invention avoided this cognitive decline associated to Alzheimer's, making the cognitive capacity of the diseased flies similar to that of the healthy flies. […] This positive effect on the cognitive parameters in flies was also shown by other TGMs (Table 11). In fact, in the control group with Alzheimer, no fly crossed the line as of 23 days of age. In this sense, the different hydroxy-triglycerides induced marked increases in the geotaxis test values, with increases in the cognitive values which reached up to 36 days, 50% more in the life of the flies with Alzheimer's (Table 11).

SMILES | IC50 ([1]; Homo sapiens, MRC5) [µM] | Δ SP, change in systolic blood pressure ([2]; p.o.) [mmHg] | Survival: age at which all the animals in the group died [3] [days] | IC50 [1] [µM] | drops in systolic blood pressure [2] | drops in blood pressure ([2]; 9 days, 400 mg/kg every 12 h, p.o.)
CCCCCC(O)C(=O)OCC(COC(=O)C(O)CCCCC)OC(=O)C(O)CCCCC (stereo not drawn) [TGM0, 1,2,3-tri(2′-hydroxyheptanoyl)glycerol] | > 500 | −8 | 30 | – | – | –
CCCCCCCCC=CCCCCCCC(O)C(=O)OCC(COC(=O)C(O)CCCCCCC=CCCCCCCCC)OC(=O)C(O)CCCCCCC=CCCCCCCCC (stereo not drawn) [TGM1, 1,2,3-tri(2′-hydroxy-octadec-9′-enoyl)glycerol] | – | −37 | 45 | > 500 | up to 37 mmHg | approximately 25 mmHg
CCCCCC=CCC=CCCCCCCC(O)C(=O)OCC(COC(=O)C(O)CCCCCCC=CCC=CCCCCC)OC(=O)C(O)CCCCCCC=CCC=CCCCCC (stereo not drawn) [TGM2, 1,2,3-tri(2′-hydroxy-octadec-9′,12′-dienoyl)glycerol] | – | −41 | 33 | > 500 | – | –
CCC=CCC=CCC=CCCCCCCC(O)C(=O)OCC(COC(=O)C(O)CCCCCCC=CCC=CCC=CCC)OC(=O)C(O)CCCCCCC=CCC=CCC=CCC (stereo not drawn) [TGM3A, 1,2,3-tri(2′-hydroxy-octadec-9′,12′,15′-trienoyl)glycerol] | – | −28 | 40 | > 500 | – | –
CCCCCC=CCC=CCC=CCCCC(O)C(=O)OCC(COC(=O)C(O)CCCC=CCC=CCC=CCCCCC)OC(=O)C(O)CCCC=CCC=CCC=CCCCCC (stereo not drawn) [TGM3G, 1,2,3-tri(2′-hydroxy-octadec-6′,9′,12′-trienoyl)glycerol] | – | −21 | 31 | > 500 | – | –
CCCCCC=CCC=CCC=CCC=CCCC(O)C(=O)OCC(COC(=O)C(O)CCC=CCC=CCC=CCC=CCCCCC)OC(=O)C(O)CCC=CCC=CCC=CCC=CCCCCC (stereo not drawn) [TGM4, 1,2,3-tri(2′-hydroxy-eicosa-5′,8′,11′,14′-tetraenoyl)glycerol] | – | −43 | 44 | > 500 | – | –
CCC=CCC=CCC=CCC=CCC=CCCC(O)C(=O)OCC(COC(=O)C(O)CCC=CCC=CCC=CCC=CCC=CCC)OC(=O)C(O)CCC=CCC=CCC=CCC=CCC=CCC (stereo not drawn) [TGM5, 1,2,3-tri(2′-hydroxy-eicosa-5′,8′,11′,14′,17′-pentaenoyl)glycerol] | – | −40 | 31 | > 500 | – | –
CCC=CCC=CCC=CCC=CCC=CCC=CCC(O)C(=O)OCC(COC(=O)C(O)CC=CCC=CCC=CCC=CCC=CCC=CCC)OC(=O)C(O)CC=CCC=CCC=CCC=CCC=CCC=CCC (stereo not drawn) [TGM6, 1,2,3-tri(2′-hydroxy-docosa-4′,7′,10′,13′,16′,19′-hexanoyl)glycerol] | – | −52 | 39 | > 500 | up to 52 mmHg | –
